Source: patent US20060009478A1, “Methods for the treatment of back pain” (priority 2003, published 2006)

Tests used:
[1] = Plasma concentrations of oxycodone, oxymorphone, noroxycodone, naltrexone and 6β-naltrexol by solid phase extraction LC-MS/MS
Description: Patients with moderate-to-severe pain due to osteoarthritis of the hip or knee were randomly assigned to one of four treatment groups as shown in Table 3 of Example 1. Plasma samples were obtained for each patient at the beginning of Weeks 1, 2, 3 and at the end of dosing during Week 3.
For the analysis of linearity and dose proportionality, linear equation coefficients were obtained by averaging patient-specific slopes and intercepts obtained by within-patient least squares regression. This was done to account for the correlation among the repeated measurements due to the patient's contributing data at each dose level. The resulting slopes among treatment groups were compared by one-way analysis of variance (ANOVA), and a one-sample t-test assessed the common slope's difference from zero. A measure of deviation from linearity was constructed as the difference between the concentration at the middle dose versus the average of the concentrations at the lower and higher doses. Due to equal spacing of doses, this measure has expectation zero under the hypothesis of linearity. As above, ANOVA and t-tests were used to assess linearity.
To achieve symmetry, modified log transformations were used.

[2] = tested on: patients with moderate to severe chronic pain due to osteoarthritis of the hip or knee; experiment: Emax composite model of 6β-naltrexol plasma concentration versus percent change in pain intensity; conditions: for EC51 Estimate / EC52 Estimate / Emax1 Estimate / Emax2 Estimate: WinNonlin
Description: As discussed in more detail below, the percent change in pain intensity was the drug effect used in a modeling analysis of plasma concentration vs. drug effect.
The plasma concentration-effect data were fit to the Emax composite model using the software program WinNonlin®(commercially available from Pharsight Corporation of Mountain View, Calif.) and the command files developed by Gabrielsson et al. The plasma concentration-effect data represented as circles in FIG. 11 were evaluated mathematically and the plasma concentration-effect curve shown in FIG. 11 was determined by the program and command files. Similarly, the program and command files were used to determine the plasma concentration-effect curve shown in FIG. 12 based on the data represented as circles in FIG. 12.
The computer output (printout) of this process included EC51 and EC52 parameters, as well as parameters reflecting statistical evaluation of the data, such as coefficient of variation (CV %).
These parameters are based on the data for 6β-naltrexol plasma concentrations and reduction in pain from baseline pain intensity to final pain intensity from all subjects for whom plasma concentration data was obtained as described herein. These parameters are based on data from subjects receiving the BID dosing regimens and subjects receiving the QID dosing regimen. Estimate refers to the value estimated by the WinNonlin® program and command file for relating plasma concentrations to the pharmacodynamic effects such as percent reduction in pain intensity.
These parameters are based on the data (6β-naltrexol plasma concentrations and percent reduction in pain intensity) for subjects receiving BID dosing regimens.

[3] = naltrexone hydrochloride in solution mixed with croscarmellose sodium in suspension; cited from earlier work
[4] = Total (BID and QID) data, curve of FIG. 11

Compound: CN1CC[C@]23c4c5ccc(O)c4O[C@H]2C(=O)CC[C@@]3(O)[C@H]1C5 [oxymorphone]
- Mean plasma concentration versus dose level over the course of the study ([1]; FIGS. 1 and 2): increased linearly with increasing dose levels
- Plasma concentration of oxymorphone (ng/mL) versus dose of oxycodone (mg/day): slope of linear equation ([1]; average of patient-specific regressions, slope p<0.001, t-test): 0.007153
- Plasma concentration of oxymorphone versus dose of oxycodone (mg/day): intercept of linear equation ([1]; average of patient-specific within-patient least squares regressions, all active treatments): 0.0607 ng/mL

Compound: Oc1ccc2c3c1O[C@H]1[C@H](O)CC[C@@]4(O)[C@@H](C2)N(CC2CC2)CC[C@]314 [6β-naltrexol]
- Plasma concentrations over the course of the study (sampled at the end of each treatment week) ([1]; FIG. 7, combination drug BID and QID): remained constant throughout the study
- EC51 Estimate ([2]; BID data, curve of FIG. 12): 14.0 pg/mL
- EC52 Estimate ([2]; BID data, curve of FIG. 12): 0.422 pg/mL
- Emax1 Estimate ([2]; BID data, curve of FIG. 12): 27.0 units
- Emax2 Estimate ([2]; BID data, curve of FIG. 12): 76.3 units
- EC52 parameter, 6β-naltrexol plasma concentration ([2]; Emax composite model, total (BID and QID) data, Table 26, effect = percent reduction in pain intensity, 6β-naltrexol as surrogate for naltrexone): about 0.439 μg/ml
- EC51 Estimate [2, 4]: 14.4 pg/mL
- EC52 Estimate [2, 4]: 0.439 pg/mL
- Emax1 Estimate [2, 4]: 26.8 units
- Emax2 Estimate [2, 4]: 79.7 units

Compound: O=C1CC[C@@]2(O)[C@H]3Cc4ccc(O)c5c4[C@@]2(CCN3CC2CC2)[C@H]1O5 [naltrexone]
- Fraction of naltrexone hydrochloride bound by croscarmellose sodium [3]: more than 90%
